Source: patent publication US20060153888A1, “Methods for scavenging oxidizing nitrogen and oxygen species with fragrances having antioxidative properties” (Access Business Group International LLC, priority 2004, published 2006)

What was measured:
[1] = DPPH Spectrophotometer Assay (free radical scavenging); assay type: biochemical; details: for DPPH EC50: Table 5; for antioxidant properties in words: comment on DPPH and NORA results of Table 5; for antioxidant capacity in words: in both DPPH and nitric oxide free radical systems, Table 3
Source text: The free radical 2,2-Diphenyl-1-picrylhydrazyl (DPPH) may be used to determine free radical scavenging ability of test materials such as a scavenging agent of the present invention. […] Measurements are taken after the reaction between the test scavenging agent and DPPH reaches steady state. DPPH is a free radical that changes color when it reacts with an antioxidant. The color change in DPPH is an indication of antioxidant power. […] Thus, DPPH serves as a model for free radical oxidation. Provided below are details for conducting a DPPH Spectrophotometer Assay:
Weigh 100 mg sample into 15 ml conical centrifuge tube.
Add 1 ml DMSO. Vortex to mix.
Dilute samples in MeOH according to Table 2.
Dilute 1 mM DPPH (prepared in 80% MeOH) to 100 uM in 80% MeOH.
In 3 ml cuvette, add 200 uL sample dilution. Add 1.8 ml of 100 uM DPPH.
Mix well. Incubate 15 min at Room Temp. Read at […].
If cuvette appears cloudy due to precipitation of sample, prepare sample dilutions (Table 2) in DMF (or suitable solvent) instead of DMSO. Also prepare DPPH working solution (100 uM) in DMF (or suitable solvent) instead of MeOH.

[2] = Nitric Oxide Radical Absorbance (NORA) assay; assay type: biochemical; details: for inhibitory response for nitric oxide in words: comment on Table 3
Method: The NORA assay determines the ability of a compound to quench nitric oxide free radicals (NO*) produced by a NO* generator. In the assay, a target compound is oxidized using the nitric oxide generator NOR-3, resulting in increased fluorescence. […] Provided below are details for conducting a Nitric Oxide Radical Absorbance (NORA) Assay:
DHR123: 1.0 mg/3 ml MeOH=1 mM stock (Freeze and protect from light) 7.5 uL stock/10 ml Buffer=0.75 uM working solution.
NOR-3: 1.0 mg NOR-3/100 uL DMSO.
Oil: Weigh 100 mg into 15 ml polypropylene centrifuge tube. Add 5 ml
Prepare sample dilution in a 96-well polypropylene storage plate (2 mL/well), the dilution plate: • A. 60 uL Stock+1.94 ml DMF=200 ug/ml • B. 500 uL 200 ug/ml+500 ul DMF=100 ug/ml • C.
Positive Control: (1 uM Uric Acid)
Add 100 uL of each sample/PC/Blank in duplicate. Row H will contain PC only.
Add 70 uL Phosphate Buffer to all wells.
Add 30 uL NOR-3 to all wells.
Incubate plate 15 min at room temperature.

[3] = amount of test material required to inhibit nitric oxide oxidation by 50%, Table 3
[4] = Antioxidant Power equals 1/EC50, fragrant oils, Table 1

SMILES	DPPH EC50 [1]	NORA EC50 ([2]; Table 5)	NORA EC50 [2, 3]	also measured
OCCOc1ccccc1 [2-Phenoxyethanol]	>2.82 g/g DPPH	>10.0 µg/mL	–	–
OCCCc1ccccc1 [3-Phenyl-1-propanol]	>2.82 g/g DPPH	>10.0 µg/mL	–	–
Cc1cc(C(C)(C)C)c(O)c(C(C)(C)C)c1 [BHT, butylated hydroxytoluene]	0.15 g/g DPPH	>10.0 µg/mL	–	–
CC12CCC(CC1=O)C2(C)C (stereo not drawn) [Camphor]	>2.82 g/g DPPH	>10.0 µg/mL	–	–
OCC=Cc1ccccc1 [Cinnamyl alcohol]	>2.82 g/g DPPH	11.8 µg/mL	–	–
O=c1ccc2ccccc2o1 [Coumarin]	>2.82 g/g DPPH	>10.0 µg/mL	–	–
CCCCCCCCC(=O)OCC [Ethyl monanoate]	>2.82 g/g DPPH	>10.0 µg/mL	–	–
CCOC(=O)c1ccc(O)cc1 [Ethyl paraben]	>2.82 g/g DPPH	>10.0 µg/mL	–	–
C=CCc1ccc(O)c(OC)c1 [Eugenol]	0.12 g/g DPPH	0.8 µg/mL	–	antioxidant properties in words [1]: excellent antioxidant properties
COc1cc(/C=C/C(=O)O)ccc1O [Ferulic acid]	0.19 g/g DPPH	0.3 µg/mL	–	antioxidant properties in words [1]: excellent antioxidant properties
CC(C)CC1CC(C)(O)CCO1 (stereo not drawn) [Florosa (Q), Florosa]	–	–	150.33 µg/mL	–
CCCCCC1COCCC1OC(C)=O (stereo not drawn) [Jasmopyrane (Q), Jasmopyrane]	–	–	150.44 µg/mL	inhibitory response for nitric oxide in words [2]: performed more poorly than did lilial
CC(C=O)Cc1ccc(C(C)(C)C)cc1 (stereo not drawn) [Lilial (G), Lilial]	–	–	23.70 µg/mL	inhibitory response for nitric oxide in words [2]: better than expected inhibitory response
C=C(C)[C@H]1CC=C(C)CC1 [Limonene]	>2.82 g/g DPPH	>10.0 µg/mL	–	–
Cc1occc(=O)c1O [Maltol]	2.82 g/g DPPH	10.0 µg/mL	–	antioxidant properties in words [1]: performed marginally well
CC1CCC(C(C)C)C(O)C1 (stereo not drawn) [Menthol]	>2.82 g/g DPPH	>10.0 µg/mL	–	–
Cc1ccc(C(C)C)cc1 [Paracymene]	–	–	274.16 µg/mL	–
CC(=O)CCc1ccc(O)cc1 [Raspberry Ketone]	–	–	10.14 µg/mL	antioxidant capacity in words [1]: greatest antioxidant capacity
Oc1cccc(O)c1 [Resorcinol]	0.74 g/g DPPH	>10.0 µg/mL	–	antioxidant properties in words [1]: good responses
Cc1ccc(C(C)C)c(O)c1 [Thymol]	0.65 g/g DPPH	>10.0 µg/mL	–	antioxidant properties in words [1]: good responses
Cc1c(C)c2c(c(C)c1O)CCC(C)(C(=O)O)O2 (stereo not drawn) [Trolox, reference compound]	–	–	0.046 µg/mL	–
O=c1[nH]c(=O)c2[nH]c(=O)[nH]c2[nH]1 [Uric Acid, reference compound]	–	–	0.84 µg/mL	–
COc1cc(C=O)ccc1O [Vanillin]	–	–	8.95 µg/mL	DPPH *AO Power [1, 4]: 0.0112 units/gram; antioxidant capacity in words [1]: greatest antioxidant capacity; NORA AO Power [2, 4]: 93 units/gram
COc1cc(CO)ccc1O [Vanillyl alcohol]	0.16 g/g DPPH	4.1 µg/mL	–	antioxidant properties in words [1]: excellent antioxidant properties
COc1cccc(CO)c1 [m-Anisyl alcohol]	>2.82 g/g DPPH	>10.0 µg/mL	–	–
